According to patent publication US9624180B2, “Squaric derivatives for the treatment of hepatitis C” (priority 2013, dated 2017):
Where two headings read alike, the source gives them in different places.

System: HCV pseudoparticles (genotype 1a HCV E1 and E2 envelope, H77C isolate)
Experiment: HCV pseudoparticle infection assay (luciferase reporter, entry into Huh7 cells)
Format: cell-based, HCV genotype 1a
Details: Hepatitis C virus, Huh-7, 48 h
[1] = read-out: EC50 (1a, nM), genotype 1a HCV pseudoparticles, Huh7 cells, luciferase 2 days after infection, average of duplicates
[2] = read-out: EC50 (1a, nM), genotype 1a HCV pseudoparticles, Huh7 cells, luciferase 2 days after infection, class symbol

Compound | EC50 [1] [nM] | EC50 [2] [nM]
COC(=O)[C@H](CNc1c(OC)c(=O)c1=O)NC(=O)c1ccc(Nc2nc(NC3(c4ccc(Cl)cc4)CC3)nc(OCC(F)(F)F)n2)cc1 [Compound 1001, (S)-methyl 2-(4-(4-(1-(4-chlorophenyl)cyclopropylamino)-6-(2,2,2-trifluoroethoxy)-1,3,5-triazin-2-ylamino)benzamido)-3-(2-methoxy-3,4-dioxocyclobut-1-enylamino)propanoate] | 117 | 10 to 1000
CCOc1c(NC[C@H](NC(=O)c2ccc(Nc3nc(NC4(c5ccc(Cl)cc5)CC4)nc(OCC(F)(F)F)n3)cc2)C(=O)OC)c(=O)c1=O [Compound 1002, (S)-methyl 2-(4-(4-(1-(4-chlorophenyl)cyclopropylamino)-6-(2,2,2-trifluoroethoxy)-1,3,5-triazin-2-ylamino)benzamido)-3-(2-ethoxy-3,4-dioxocyclobut-1-enylamino)propanoate] | – | 10 to 1000
COC(=O)[C@H](CNc1c(O)c(=O)c1=O)NC(=O)c1ccc(Nc2nc(NC3(c4ccc(Cl)cc4)CC3)nc(OCC(F)(F)F)n2)cc1 [Compound 1003, (S)-methyl 2-(4-(4-(1-(4-chlorophenyl)cyclopropylamino)-6-(2,2,2-trifluoroethoxy)-1,3,5-triazin-2-ylamino)benzamido)-3-(2-hydroxy-3,4-dioxocyclobut-1-enylamino)propanoate] | 47 | 10 to 1000
CCOc1c(NC[C@H](NC(=O)c2ccc(Nc3nc(NC4(c5ccc(Cl)cc5)CC4)nc(OCC(F)(F)F)n3)cc2)C(=O)O)c(=O)c1=O [Compound 1004, (S)-2-(4-(4-(1-(4-chlorophenyl)cyclopropylamino)-6-(2,2,2-trifluoroethoxy)-1,3,5-triazin-2-ylamino)benzamido)-3-(2-ethoxy-3,4-dioxocyclobut-1-enylamino)propanoic acid] | – | 10 to 1000
CCOc1c(NCC(C)(C)CNC(=O)c2ccc(Nc3nc(NC4(c5ccc(Cl)cc5)CC4)nc(OCC(F)(F)F)n3)cc2)c(=O)c1=O [Compound 1005, 4-((4-((1-(4-chlorophenyl)cyclopropyl)amino)-6-(2,2,2-trifluoroethoxy)-1,3,5-triazin-2-yl)amino)-N-(3-((2-ethoxy-3,4-dioxocyclobut-1-en-1-yl)amino)-2,2-dimethylpropyl)benzamide] | – | 0.01 to 10
CC(C)(CNC(=O)c1ccc(Nc2nc(NC3(c4ccc(Cl)cc4)CC3)nc(OCC(F)(F)F)n2)cc1)CNc1c(O)c(=O)c1=O [Compound 1006] | 0.52 | 0.01 to 10
CC(C)(CNC(=O)c1ccc(Nc2nc(NC3(c4ccc(Cl)cc4)CC3)nc(OCC(F)(F)F)n2)cc1)CNc1c(NCC2CC2)c(=O)c1=O [Compound 1007] | – | 0.01 to 10
CC(C)(CNC(=O)c1ccc(Nc2nc(NC3(c4ccc(Cl)cc4)CC3)nc(OCC(F)(F)F)n2)cc1)CNc1c(NCc2ccc(F)cc2F)c(=O)c1=O [Compound 1008] | 0.05 | 0.01 to 10
CC(C)(CNC(=O)c1ccc(Nc2nc(NC3(c4ccc(Cl)cc4)CC3)nc(OCC(F)(F)F)n2)cc1)CNc1c(NC2CCCCCC2)c(=O)c1=O [Compound 1009] | – | 0.01 to 10
CC(C)(CNC(=O)c1ccc(Nc2nc(NC3(c4ccc(Cl)cc4)CC3)nc(OCC(F)(F)F)n2)cc1)CNc1c(NCC2(CN3CCCC3)CC2)c(=O)c1=O [Compound 1010] | – | 0.01 to 10
O=C(N[C@@H](CCNc1c(NCC2CC2)c(=O)c1=O)C(=O)NCC1CC1)c1ccc(Nc2nc(NC3(c4ccc(Cl)cc4)CC3)nc(OCC(F)(F)F)n2)cc1 [Compound 1011] | 5.98 | 0.01 to 10
O=C(N[C@@H](CCNc1c(NC2CCCCCCC2)c(=O)c1=O)C(=O)O)c1ccc(Nc2nc(NC3(c4ccc(Cl)cc4)CC3)nc(OCC(F)(F)F)n2)cc1 [Compound 1012] | – | 0.01 to 10
CC(C)(CNC(=O)c1ccc(Nc2nc(NC3(c4ccc(Cl)cc4)CC3)nc(OCC(F)(F)F)n2)cc1)CNc1c(Nc2ccccc2)c(=O)c1=O [Compound 1013] | – | 0.01 to 10
O=C(N[C@@H](CCNc1c(Nc2ccccc2)c(=O)c1=O)C(=O)Nc1ccccc1)c1ccc(Nc2nc(NC3(c4ccc(Cl)cc4)CC3)nc(OCC(F)(F)F)n2)cc1 [Compound 1014] | – | 10 to 1000
O=C(N[C@@H](CCNc1c(NCC2(Cn3ccnc3)CC2)c(=O)c1=O)C(=O)O)c1ccc(Nc2nc(NC3(c4ccc(Cl)cc4)CC3)nc(OCC(F)(F)F)n2)cc1 [Compound 1015] | 6.55 | 0.01 to 10
O=C(N[C@@H](CCNc1c(Nc2ccccc2)c(=O)c1=O)C(=O)O)c1ccc(Nc2nc(NC3(c4ccc(Cl)cc4)CC3)nc(OCC(F)(F)F)n2)cc1 [Compound 1016] | – | 0.01 to 10
O=C(N[C@@H](CCNc1c(N[C@@H]2C[C@H]3CC[C@@H]2C3)c(=O)c1=O)C(=O)O)c1ccc(Nc2nc(NC3(c4ccc(Cl)cc4)CC3)nc(OCC(F)(F)F)n2)cc1 [Compound 1017] | – | 0.01 to 10
O=C(N[C@@H](CCNc1c(NC2CCCCCC2)c(=O)c1=O)C(=O)NC1CCCCCC1)c1ccc(Nc2nc(NC3(c4ccc(Cl)cc4)CC3)nc(OCC(F)(F)F)n2)cc1 [Compound 1018] | – | 0.01 to 10
O=C(N[C@@H](CCNc1c(N[C@@H]2C[C@H]3CC[C@@H]2C3)c(=O)c1=O)C(=O)N[C@@H]1C[C@H]2CC[C@@H]1C2)c1ccc(Nc2nc(NC3(c4ccc(Cl)cc4)CC3)nc(OCC(F)(F)F)n2)cc1 [Compound 1019] | – | 10 to 1000
O=C(N[C@@H](CCNc1c(NCc2ccc(F)cc2F)c(=O)c1=O)C(=O)NCc1ccc(F)cc1F)c1ccc(Nc2nc(NC3(c4ccc(Cl)cc4)CC3)nc(OCC(F)(F)F)n2)cc1 [Compound 1020] | – | 0.01 to 10
CCOC(=O)[C@H](CCNc1c(NC2CCCCCC2)c(=O)c1=O)NC(=O)c1ccc(Nc2nc(NC3(c4ccc(Cl)cc4)CC3)nc(OCC(F)(F)F)n2)cc1 [Compound 1021] | 1.24 | 0.01 to 10
